According to US10513496B2, “Aminobenzamide derivatives as useful agents for controlling animal parasites” (BAYER INTELLECTUAL PROPERTY GMBH, priority 2007, dated 2019):

Legend:
Format in all cases: in vivo
Boophilus microplus = Boophilus microplus test (injection); details: Rhipicephalus microplus; application rate 20 μg/animal; injected into abdomen of adult engorged female ticks; 100% = all eggs infertile
Method: Boophilus microplus—Test (Injection)
(§1) Solvent: Dimethyl Sulfoxide
(§2) To produce a suitable preparation of active compound, 10 mg of active compound are dissolved in 0.5 ml solvent, and the concentrate is diluted with water to the desired concentration.
Five adult engorged female ticks (Boophilus microplus) are injected with compound solution into the abdomen. Ticks are transferred into replica plates and incubated in a climate chamber for a period of time. Egg deposition of fertile eggs is monitored.
After the specified period of time, mortality in % is determined. 100% means that all eggs are infertile; 0% means that all eggs are fertile.

Ctenocephalides felis = Ctenocephalides felis test (CTECFE); details: application rate 100 ppm in cattle blood, adult unfed fleas, 100% = all fleas killed
Method: Ctenocephalides felis—Test (CTECFE)
as §1
To produce a suitable preparation of active compound, 10 mg of active compound are dissolved in 0.5 ml solvent, and the concentrate is diluted with cattle blood to the desired concentration.
Approximately 10 to 15 adult unfed (Ctenocepahlides felis) are placed in flea chambers. The blood chamber, sealed with parafilm on the bottom are filled with cattle blood supplied with compound solution and placed on top of the flea chamber, so that the fleas are able to suck the blood. The blood chamber is heated to 37° C. whereas the flea chamber is kept at room temperature.
After the specified period of time, mortality in % is determined. 100% means that all the fleas have been killed; 0% means that none of the fleas have been killed.

Lucilia cuprina larvae = experiment: Lucillia cuprina test; details: application rate 100 ppm, larvae on minced horse meat, 100% = all larvae killed
Method: as §1, §2
Approximately 20-30 (Lucilia cuprina larvae) are transferred into a test tube containing 1 cm^3 of minced horse meat and 0.5 ml aqueous dilution of test compound.
After the specified period of time, mortality in % is determined. 100% means that all the larvae have been killed; 0% means that none of the larvae have been killed.

Musca domestica = Musca domestica test; details: application rate 100 ppm, adults, sponge soaked with sugar and compound solution, 100% = all flies killed
Method: as §1, §2
Prior to the assay, a piece or kitchen sponge is soaked with a mixture of sugar and compound solution and placed into a container. 10 adults (Musca domestica) are placed into the container and closed with a perforated lid.
After the specified period of time, mortality in % is determined. 100% means that all the flies have been killed; 0% means that none of the flies have been killed.

CCc1cc(SC(F)(F)F)cc(C)c1NC(=O)c1cccc(NC(=O)c2ccccc2F)c1 [Example I-1-186]
mortality at 0.02 mg (Boophilus microplus): 80%
mortality at 100 ppm (Ctenocephalides felis): ≥ 80%
mortality at 100 ppm (Lucilia cuprina larvae): ≥ 80%

CCc1cc(SC(F)(F)C(F)(F)F)cc(C)c1NC(=O)c1cccc(NC(=O)c2ccccc2F)c1 [Example I-1-187]
mortality at 0.02 mg (Boophilus microplus): 80%
mortality at 100 ppm (Ctenocephalides felis): ≥ 80%
mortality at 100 ppm (Lucilia cuprina larvae): ≥ 80%

O=C(Nc1c(I)cc(C(F)(F)F)cc1C(F)(F)F)c1cccc(NC(=O)c2ccccc2F)c1 [Example I-1-203]
mortality at 0.02 mg (Boophilus microplus): 80%
mortality at 100 ppm (Ctenocephalides felis): ≥ 80%

O=C(Nc1cccc(C(=O)Nc2c(I)cc(C(F)(F)F)cc2C(F)(F)F)c1)c1ccccc1 [Example I-1-204]
mortality at 0.02 mg (Boophilus microplus): 80%
mortality at 100 ppm (Ctenocephalides felis): ≥ 80%
mortality at 100 ppm (Lucilia cuprina larvae): ≥ 80%

O=C(Nc1cccc(C(=O)Nc2c(Br)cc(Br)cc2Br)c1)c1ccccc1 [Example I-1-205]
mortality at 0.02 mg (Boophilus microplus): 80%

O=C(Nc1cccc(C(=O)Nc2c(I)cc(C(F)(F)F)cc2C(F)(F)F)c1)c1ccc(Cl)cc1 [Example I-1-206]
mortality at 100 ppm (Ctenocephalides felis): ≥ 80%
mortality at 100 ppm (Lucilia cuprina larvae): ≥ 80%

O=C(Nc1c(I)cc(C(F)(F)F)cc1I)c1cccc(NC(=O)c2ccccc2F)c1 [Example I-1-207]
mortality at 0.02 mg (Boophilus microplus): 80%
mortality at 100 ppm (Ctenocephalides felis): ≥ 80%
mortality at 100 ppm (Lucilia cuprina larvae): ≥ 80%

O=C(Nc1c(I)cc(C(F)(F)F)cc1I)c1cccc(NC(=O)c2cccnc2F)c1 [Example I-1-208]
mortality at 0.02 mg (Boophilus microplus): 80%
mortality at 100 ppm (Musca domestica): ≥ 80%
mortality at 100 ppm (Ctenocephalides felis): ≥ 80%
mortality at 100 ppm (Lucilia cuprina larvae): ≥ 80%

O=C(Nc1cccc(C(=O)Nc2c(I)cc(C(F)(F)F)cc2C(F)(F)F)c1)c1ccc(Cl)cc1 [Example I-1-211]
mortality at 0.02 mg (Boophilus microplus): 80%

O=C(Nc1cccc(C(=O)Nc2c(Br)cc(Br)cc2C(F)(F)F)c1)c1ccc(Cl)cc1 [Example I-1-212]
mortality at 0.02 mg (Boophilus microplus): 80%
mortality at 100 ppm (Ctenocephalides felis): ≥ 80%

O=C(Nc1c(Br)cc(S(F)(F)(F)(F)F)cc1Br)c1cccc(NC(=O)c2ccccc2F)c1 [Example I-1-213]
mortality at 0.02 mg (Boophilus microplus): 80%
mortality at 100 ppm (Ctenocephalides felis): ≥ 80%
mortality at 100 ppm (Lucilia cuprina larvae): ≥ 80%
